Like-named read-outs stand apart in the source and are kept apart here.
Legend:
Assay type in all cases: cell-based
alpha2A receptor = target: T1, alpha2A receptor (Homo sapiens, UniProt P08913); assay: Receptor Selection and Amplification Technology (RSAT) assay, alpha2A; conditions: for Alpha 2A IA (intrinsic activity): ratio of maximal effect of the drug to maximal effect of standard full agonist brimonidine (UK14304)
T1 construct: expressed in transfected cells; host or cells: NIH-3T3
T1 sequence (P08913 1-465): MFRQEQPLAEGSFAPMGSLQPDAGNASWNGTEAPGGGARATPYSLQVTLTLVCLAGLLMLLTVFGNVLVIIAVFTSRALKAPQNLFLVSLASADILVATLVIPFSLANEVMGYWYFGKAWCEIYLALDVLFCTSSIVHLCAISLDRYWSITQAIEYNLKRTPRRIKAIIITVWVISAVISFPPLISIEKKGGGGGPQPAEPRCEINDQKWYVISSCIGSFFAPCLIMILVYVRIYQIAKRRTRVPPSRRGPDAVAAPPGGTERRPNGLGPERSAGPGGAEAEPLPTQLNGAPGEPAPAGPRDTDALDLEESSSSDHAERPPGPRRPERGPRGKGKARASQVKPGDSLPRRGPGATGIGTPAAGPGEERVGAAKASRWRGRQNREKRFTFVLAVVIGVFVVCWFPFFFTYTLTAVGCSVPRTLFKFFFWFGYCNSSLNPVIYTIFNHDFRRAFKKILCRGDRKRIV
Protocol: (§1) Receptor Selection and Amplification Technology (RSAT) Assay
(§2) The RSAT assay measures a receptor-mediated loss of contact inhibition that results in selective proliferation of receptor-containing cells in a mixed population of confluent cells. The increase in cell number is assessed with an appropriate transfected marker gene such as β-galactosidase, the activity of which can be easily measured in a 96-well format. Receptors that activate the G protein, Gq, elicit this response. Alpha2 receptors, which normally couple to Gi, activate the RSAT response when coexpressed with a hybrid Gq protein that has a Gi receptor recognition domain, called Gq/i5.
(§3) NIH-3T3 cells are plated at a density of 2×10^6 cells in 15 cm dishes and maintained in Dulbecco's modified Eagle's medium supplemented with 10% calf serum. One day later, cells are cotransfected by calcium phosphate precipitation with mammalian expression plasmids encoding p-SV-β-galactosidase (5-10 μg), receptor (1-2 μg) and G protein (1-2 μg). 40 μg salmon sperm DNA may also be included in the transfection mixture. Fresh media is added on the following day and 1-2 days later, cells are harvested and frozen in 50 assay aliquots. Cells are thawed and 100 μl added to 100 μl aliquots of various concentrations of drugs in triplicate in 96-well dishes. Incubations continue 72-96 hr at 37° C. After washing with phosphate-buffered saline, β-galactosidase enzyme activity is determined by adding 200 μl of the chromogenic substrate (consisting of 3.5 mM o-nitrophenyl-β-D-galactopyranoside and 0.5% nonidet P-40 in phosphate buffered saline), incubating overnight at 30° C. and measuring optical density at 420 nm. The absorbance is a measure of enzyme activity, which depends on cell number and reflects a receptor-mediated cell proliferation. The efficacy or intrinsic activity is calculated as a ratio of the maximal effect of the drug to the maximal effect of a standard full agonist for each receptor subtype. Brimonidine, also called UK14304, the chemical structure of which is shown below, is used as the standard agonist for the alpha2A, alpha2B and alpha2C receptors. The EC50 is the concentration at which the drug effect is half of its maximal effect.
(§4) EC50 values are nanomolar. NA stands for “not active” at concentrations less than 10 micromolar. IA stands for “intrinsic activity.”

alpha2B receptor = target: T2, alpha2B receptor (Homo sapiens, UniProt P18089); assay: Receptor Selection and Amplification Technology (RSAT) assay, alpha2B; conditions: for Alpha 2B IA (intrinsic activity): ratio of maximal effect of the drug to maximal effect of standard full agonist brimonidine (UK14304)
T2 construct: expressed in transfected cells; host or cells: NIH-3T3
T2 sequence (P18089 1-450): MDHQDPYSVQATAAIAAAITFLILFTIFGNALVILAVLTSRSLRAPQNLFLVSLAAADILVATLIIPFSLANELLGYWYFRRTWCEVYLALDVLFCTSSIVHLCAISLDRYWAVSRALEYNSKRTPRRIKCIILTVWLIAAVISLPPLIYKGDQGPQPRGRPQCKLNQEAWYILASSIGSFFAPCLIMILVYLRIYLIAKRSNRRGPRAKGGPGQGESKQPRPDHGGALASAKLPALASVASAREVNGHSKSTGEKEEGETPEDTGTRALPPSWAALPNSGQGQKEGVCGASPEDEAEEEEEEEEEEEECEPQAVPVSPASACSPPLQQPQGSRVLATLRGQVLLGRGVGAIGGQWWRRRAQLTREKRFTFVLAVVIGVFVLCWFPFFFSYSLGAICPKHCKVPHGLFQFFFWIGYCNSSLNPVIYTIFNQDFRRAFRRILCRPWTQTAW
Protocol: as §1, §2, §3
The results of the RSAT assay with several exemplary compounds of the invention are disclosed in Table 1 above together with the chemical formulas of these exemplary compounds. EC50 values are nanomolar. NA stands for “not active” at concentrations less than 10 micromolar. IA stands for “intrinsic activity.”

alpha2C receptor = target: T3, alpha2C receptor (Homo sapiens, UniProt P18825); assay: Receptor Selection and Amplification Technology (RSAT) assay, alpha2C; conditions: for Alpha 2C IA (intrinsic activity): ratio of maximal effect of the drug to maximal effect of standard full agonist brimonidine (UK14304)
T3 construct: expressed in transfected cells; host or cells: NIH-3T3
T3 sequence (P18825 1-462): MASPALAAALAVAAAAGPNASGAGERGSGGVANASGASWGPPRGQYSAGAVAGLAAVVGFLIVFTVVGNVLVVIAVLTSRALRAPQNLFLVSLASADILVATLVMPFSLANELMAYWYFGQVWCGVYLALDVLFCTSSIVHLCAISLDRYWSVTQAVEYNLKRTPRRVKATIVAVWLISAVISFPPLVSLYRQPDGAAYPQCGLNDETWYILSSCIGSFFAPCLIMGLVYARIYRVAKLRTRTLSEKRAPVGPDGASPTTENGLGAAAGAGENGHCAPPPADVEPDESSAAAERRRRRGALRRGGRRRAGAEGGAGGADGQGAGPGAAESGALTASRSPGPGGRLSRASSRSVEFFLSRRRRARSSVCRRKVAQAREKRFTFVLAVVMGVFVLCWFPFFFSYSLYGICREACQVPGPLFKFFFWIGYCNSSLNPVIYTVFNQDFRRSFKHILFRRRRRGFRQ
Protocol: as §1, §2, §3, §4

[1] = RSAT, NIH-3T3 cells cotransfected with receptor and Gq/i5, not active = not active at concentrations less than 10 micromolar
[2] = RSAT, NIH-3T3 cells cotransfected with receptor and Gq/i5, not active = not active at concentrations less than 10 micromolar, read-out: Alpha 2B EC50
[3] = RSAT, NIH-3T3 cells cotransfected with receptor and Gq/i5, not active = not active at concentrations less than 10 micromolar, read-out: Alpha 2C EC50
[4] = RSAT, NIH-3T3 cells cotransfected with receptor and Gq/i5, not active = not active at concentrations less than 10 micromolar, read-out: Alpha 2A EC50

SMILES | Alpha 2A EC50 (alpha2A receptor; [1]) | EC50 (alpha2B receptor; [2]) | Alpha 2B IA (intrinsic activity) (alpha2B receptor) | EC50 (alpha2C receptor; [3]) | Alpha 2C IA (intrinsic activity) (alpha2C receptor) | Alpha 2C EC50 (alpha2C receptor; [1]) | EC50 (alpha2A receptor; [4]) | Alpha 2A IA (intrinsic activity) (alpha2A receptor) | EC50 (alpha2A receptor) | EC50 (alpha2B receptor) | EC50 (alpha2C receptor)
CC1=CC(NC(=O)NCCF)CC1 (centres unmarked) | not active | 1160 nM | 0.61 | 911 nM | 0.47 | – | – | – | – | – | –
COc1cccc2c1CC(NC(=O)NCCF)C2 (centres unmarked) | not active | 7.5 nM | 1.57 | 41 nM | 0.63 | – | – | – | – | – | –
Cc1c(Cl)ccc2c1C(NC(=O)NCCF)CC2 (centres unmarked) | not active | 85 nM | 0.6 | – | – | not active | – | – | – | – | –
Cc1cccc2c1CCCC2NC(=O)NCCF (centres unmarked) | – | 5.6 nM | 1.3 | 123 nM | 1.03 | – | 48 nM | 0.41 | – | – | –
Cc1cc(C)c2c(c1)C(NC(=O)NCCF)CCC2 (centres unmarked) | – | 27 nM | 0.91 | 391 nM | 0.58 | – | 109 nM | 0.49 | – | – | –
O=C(NCCF)NC1CCCc2c(Cl)cccc21 (centres unmarked) | – | 29 nM | 1.11 | 310 nM | 0.72 | – | 168 nM | 0.42 | – | – | –
O=C(NCCF)NC1Cc2cccc(Cl)c2C1 (centres unmarked) | not active | 15.4 nM | 0.67 | 12.5 nM | 0.44 | – | – | – | – | – | –
O=C(NCCF)NC1Cc2ccccc2C1 | not active | 18 nM | 0.92 | 246 nM | 0.48 | – | – | – | – | – | –
O=C(NCCF)NC1CCc2c(Br)cccc21 (centres unmarked) | – | 2.7 nM | 1.06 | 103 nM | 0.7 | – | 64.6 nM | 0.97 | – | – | –
Cc1cccc2c1CCC2NC(=O)NCCF (centres unmarked) | – | 1.2 nM | 1.1 | 67.2 nM | 0.79 | – | 120 nM | 0.59 | – | – | –
O=C(NCCF)NC1CCCCc2ccccc21 (centres unmarked) | – | 212 nM | 0.65 | 967 nM | 0.5 | – | 534 nM | 0.3 | – | – | –
CCC1=CCCCC1NC(=O)NCCF (centres unmarked) | – | – | 1.22 | – | 0.59 | – | – | 0.64 | 184 nM | 45 nM | 348 nM
O=C(NCCF)NC1CCc2ccccc2C1 (centres unmarked) | not active | 226 nM | 0.63 | – | – | not active | – | – | – | – | –
CC1Cc2ccccc2C1NC(=O)NCCF (centres unmarked) | not active | 26.4 nM | 0.85 | – | – | not active | – | – | – | – | –
O=C(NCCF)NC1CCc2ccc(F)c(F)c21 (centres unmarked) | not active | 18.7 nM | 0.97 | 117 nM | 0.53 | – | – | – | – | – | –
COc1ccc2c(c1)C(NC(=O)NCCF)CCC2 (centres unmarked) | not active | 824 nM | 0.78 | – | – | not active | – | – | – | – | –

Source: US7598417B2, “Substituted fluoroethyl ureas as alpha 2 adrenergic agents” (Allergan, Inc., priority 2007, dated 2009)
